How the values were obtained:
[1] = MTX toxicity in irradiated mice transplanted with normal (non-transgenic) FVB/N marrow
Method: (§1) Male marrow is used as competitor so that Y chromosome sequences can be used as a quantitative signal for the presence of competitor-derived material at the time of analysis, while the DHFR transgene can be used as a quantitative signal for presence of DHFR-transgenic-derived material.
(§2) Animals in each of the three groups were administered either PBS or MTX at an increasing dose schedule culminating at 4 mg/kg/day. MTX administration was continued out to 60 days post-transplant. […] After 60 days, MTX administration is stopped. A small number of animals were sacrificed at this time to collect marrow samples for subsequent analysis, but most of the animals were maintained for an additional 2 months. At 4 months post-transplant, all surviving animals were sacrificed and bone marrow harvested. Each marrow sample collected was resuspended and then injected into 5 lethally-irradiated secondary female FVB/N recipients (2×10^6 donor cells per secondary recipient), saving the leftover marrow for subsequent molecular analysis. Secondary recipients were maintained for an additional 4 months before sacrificing and harvesting marrow samples.

[2] = test system: stem cells expressing a MTX-resistant DHFR; experiment: Competitive repopulation with 50/50 mixture of normal and DHFR transgenic marrow, Southern blot of marrow DNA; type: in vivo, FVB/N mice
Method: as §1, §2

CN(Cc1cnc2nc(N)nc(N)c2n1)c1ccc(C(=O)N[C@@H](CCC(=O)O)C(=O)O)cc1 [MTX, methotrexate]
toxicity of low dose MTX ([1]; 0.25 mg/kg/day for 1-4 days, 0.5 mg/kg/day next four days, then 1.0 mg/kg/day, recipients of non-transgenic marrow): caused hematopoietic toxicity
time at which animals succumb to MTX induced toxicity ([1]; irradiated (900 rads) mice transplanted with 10^7 normal FVB/N marrow cells, MTX increasing dose schedule culminating at 4 mg/kg/day, all animals): 15-30 days post-transplant
toxicity of high dose MTX ([1]; mouse, in vivo, 4 mg/kg/day): causes not only hematopoietic toxicity but gastrointestinal toxicity as well
DHFR transgene copy number in primary recipients ([2]; animals transplanted with transgenic marrow, MTX rather than PBS): substantial increase
secondary recipients showing a substantial contribution of transgenic marrow ([2]; primary transplant 50% normal / 50% DHFR transgenic marrow, MTX up to 4 mg/kg/day for 60 days, secondary recipients analysed 4 months after secondary transplant): 5 out of 5
